From publication PMC12992107 (Journal of medicinal chemistry, 2024)
Like-named read-outs stand apart in the source and are kept apart here. Marks after values point to notes of the source that are not given here.

Columns and labels:
[1] = Plasma protein binding, standard equilibrium dialysis assay; format: in vitro ADME
[2] = test system: Plasmodium berghei; settings: previously published, cited from earlier work
[3] = test system: HEK293 cells; settings: read-out: HEK293 IC50 (n1; n2); previously published; cited from earlier work
[4] = test system: P. falciparum strain 3D7; assay: In vitro parasite reduction ratio; format: cell-based, Plasmodium falciparum; settings: 10-fold IC50; 28 days recovery in drug-free medium
[5] = Plasma stability; format: in vitro ADME, human
[6] = test system: HeLa cells; settings: read-out: HeLa IC50 (n1; n2); previously published; cited from earlier work
[7] = Snapshot pharmacokinetics; format: in vivo; settings: P. berghei mice, single oral administration of 3, 10 and 30 mg/kg
[8] = test system: RF12 (PH-1263-C); assay: microbe, parasite or virus in culture; format: cell-based; settings: Plasmodium falciparum, 72 h, read-out: IC50, RF12 (PH-1263-C)
[9] = Plasma protein binding, dilution method
[10] = test system: Plasmodium berghei; assay: Standard four-day Peters test in P. berghei-infected mice; settings: for cured: parasite-free mice on day 30
[11] = test system: P. falciparum isolates; assay: Ex vivo growth inhibition assay of clinical isolates; format: cell-based; settings: Plasmodium falciparum
[12] = Chemical stability in aqueous solution; format: physicochemical; settings: phosphate buffer pH 7.4, room temperature, over 24 h, n = 3
[13] = test system: P. falciparum Dd2 Polδ; assay: Single-step resistance selection assay; format: cell-based, Plasmodium falciparum
[14] = test system: chloroquine-sensitive and chloroquine-resistant P. falciparum strains; assay: Initial antiplasmodial in vitro assessment; format: cell-based; settings: Plasmodium falciparum, read-out: IC50 (range over strains)
[15] = Calculation of hepatic clearance and hepatic extraction ratio; settings: calculated from in vitro assays
[16] = test system: Pf NF54; assay: 72 h [3H]hypoxanthine incorporation assay; format: cell-based; settings: Plasmodium falciparum, NF54, 72 h
[17] = Microsomal binding, equilibrium dialysis; format: in vitro ADME; settings: human, human liver microsomes, microsomal binding (fraction bound), 1 μM in 0.5 mg/mL HLMs
[18] = test system: Pf Dd2; assay: Antiplasmodial in vitro activity, HRP2 ELISA; format: cell-based; settings: Plasmodium falciparum, DD2, read-out: Pf Dd2 IC50 ± SD
[19] = cited from earlier work
[20] = cited from earlier work; remark: listed apart in the source

In the case of `COc1ccc(/N=C(\N)CC(O)c2cc3c(F)cc(F)cc3c3cc(C(F)(F)F)ccc23)cc1` (centres unmarked) [1 (TKK129)], the fraction unbound at 24 h, 25 ng/mL [1] is listed as < 0.01, the MSD ([2]; oral 4 × 3 mg/kg) is listed as “euthanized” and the cured ([2]; oral 4 × 3 mg/kg) is listed as 0/3. For the same molecule, the cured ([2]; oral 4 × 10 mg/kg) was 0/3, the cured ([2]; oral 4 × 30 mg/kg) was 1/3 and the cured ([2]; oral 4 × 50 mg/kg) was 2/3. For the same molecule, the IC50 [3] was 36800 nM, the “exposure time reducing the number of viable parasites to baseline” value (from here on “exposure time reducing the number”) [4] was ≤ 24 h and the plasma stability ([5]; at 37 °C, time without decrease) was 24 h at 37 °C. For the same molecule, the IC50 [6] was 46100 nM.
In the case of `Cl.N=C(CC(O)c1cc2c(F)cc(F)cc2c2cc(C(F)(F)F)ccc12)Nc1ccc(F)cc1` (centres unmarked) [2 (TKK130), (Z)-3-(1,3-Difluoro-6-(trifluoromethyl)phenanthrene-9-yl)-N′-(4-fluorophenyl)-3-hydroxypropanimidamid Hydrochlorid], the “time at which maximum concentration was reached” value [7] is reported as 4 h, the IC50 [8] is reported as 4 nM and the fraction unbound at 24 h, 25 ng/mL ([9]; plasma) is reported as 0.004. The “signs of toxicity during the in vivo studies” value ([10]; mice, oral dosing) was “no obvious signs of toxicity”, the cured ([10]; oral 4 × 3 mg/kg) was 0/3 and the cured ([10]; oral 4 × 10 mg/kg) was 1/3. For the same molecule, the cured ([10]; oral 4 × 30 mg/kg) was 3/3, the cured ([10]; oral 4 × 50 mg/kg) was 3/3 and the IC50 ([11]; read-out: max IC50) was 25.1 nM. The IC50 ([11]; read-out: min IC50) was 1.4 nM, the chemical stability [12] was > 90% and the “exposure time reducing the number” value [4] was ≤ 24 h. For the same molecule, the half-life at 25 ng/mL ([5]; human, plasma) was 67 h, the “day on which treated cultures were clear” value ([13]; 9 nM (3-fold IC50), inocula 2 × 10^7 and 2 × 10^9) was 4 days and the “parasite growth after selection” value ([13]; 9 nM, inocula 2 × 10^7 and 2 × 10^9, 60 days of recovery time) was “no subsequent parasite growth could be observed”. It also gave an IC50 [14] of 2 to 12 nM, a hepatic extraction ratio [15] of 0.17 and a hepatic clearance ([15]; hepatic blood flow 1500 mL/min) of 0.25 L/min. For the same molecule, the IC50 ([16]; read-out: IC50, NF54) was 12 nM and the fraction unbound at 24 h, 1 μM [17] was 0.026.
For `C[C@@H]1CC[C@H]2[C@@H](C)C(=O)O[C@@H]3O[C@@]4(C)CC[C@@H]1[C@]32OO4` [AS, Artemisinin, reference compound], the cured ([10]; oral 4 × 30 mg/kg) was 0/10.
For `CCN(CC)CCCC(C)Nc1ccnc2cc(Cl)ccc12` (centres unmarked) [CQ, Chloroquine], the cured ([10]; oral 4 × 30 mg/kg) was 0/10, the IC50 [18] was 240 ± 130 nM and the IC50 ([16]; read-out: IC50, NF54) was 11 nM. The IC50 ([16]; read-out: Pf NF54 IC50 ± SD) was 12 ± 1 nM.
In the case of `Cc1cc(Nc2ccc(S(F)(F)(F)(F)F)cc2)n2nc(C(C)(F)F)nc2n1` [DSM265, reference compound], the “day of recrudescence of parasites” value ([13]; 12 nM (3-fold IC50), inoculum 2 × 10^7 per flask, all three replicate flasks) is reported as 16 days.
For `CCCCN(CCCC)CCC(O)c1cc2c(Cl)cc(Cl)cc2c2cc(C(F)(F)F)ccc12` (centres unmarked) [Hf, Halofantrine], the plasma protein binding ([19]; plasma) is given as >99^d % and the “microsomal stability (60 min), Clint” value [20] is given as “Clint = 26.9 μL/min/mg^d”.
In the case of `CCCCN(CCCC)CC(O)c1cc(Cl)cc2c1-c1ccc(Cl)cc1/C2=C/c1ccc(Cl)cc1` (centres unmarked) [LUM, Lumefantrine], the cured ([10]; oral 4 × 30 mg/kg) is given as 3/3, the plasma protein binding [19] is given as >99^d % and the “microsomal stability (60 min), Clint” value [20] is given as “Clint = <7 μL/min/mg^d”.
For `O=C1C(O)=C([C@H]2CC[C@H](c3ccc(Cl)cc3)CC2)C(=O)c2ccccc21` [atovaquone, reference compound], the “exposure time reducing the number” value [4] was 120 h.
Molecule `CCC(C)n1ncn(-c2ccc(N3CCN(c4ccc(OCC5COC(Cn6cncn6)(c6ccc(Cl)cc6Cl)O5)cc4)CC3)cc2)c1=O` (centres unmarked) [itraconazole, reference compound] has a fraction unbound at 24 h, 25 ng/mL ([9]; plasma diluted 1:10 or 1:20 in 0.9% saline) of 0.006.
With `CCc1nc(N)nc(N)c1-c1ccc(Cl)cc1` [pyrimethamine, reference compound] the “exposure time reducing the number” value [4] was 72 h.
